Assay results from US5057493A, “Novel antibiotics R106” (priority 1988, dated 1991).
Starred links: 1 amine or outer side, 2 acyl side, 3 side chain; linkers in the order of their positions; H or OH if unused. Non-standard residues stand in square brackets, D forms with d. Residues, ends and D or L forms follow the SMILES beside them. ξ: configuration not given here. ξNMeVal(3-OH) = CNC(C(=O)O)C(C)(C)O; NMeF = CN[CH](Cc1ccccc1)C(=O)O; X1 = CCC(C)C(O[*:1])C(=O)[*:2]; NMeV = CN[CH](C(=O)O)C(C)C

Columns and labels:
[1] = test system: Aspergillus citrinum TIMM 1330; assay: MIC by agar dilution method, casitone agar; format: cell-based; settings: 27° C. for 7 days
[2] = test system: Geotrichum candidum TIMM 0694; assay: MIC by agar dilution method, casitone agar; format: cell-based; settings: 27° C. for 7 days
[3] = test system: Aspergillus clavatus TIMM 0056; assay: MIC by agar dilution method, casitone agar; format: cell-based; settings: 27° C. for 7 days
[4] = test system: Aspergillus flavus TIMM 0058; assay: MIC by agar dilution method, casitone agar; format: cell-based; settings: 27° C. for 7 days
[5] = test system: Trichophyton mentagrophytes TIMM 1177; assay: MIC by agar dilution method, casitone agar; format: cell-based; settings: 27° C. for 7 days
[6] = test system: Aspergillus terreus TIMM 0120; assay: MIC by agar dilution method, casitone agar; format: cell-based; settings: 27° C. for 7 days
[7] = test system: Aspergillus nidulans TIMM 0112; assay: MIC by agar dilution method, casitone agar; format: cell-based; settings: 27° C. for 7 days
[8] = test system: Exophiala werneckii TIMM 1334; assay: MIC by agar dilution method, casitone agar; format: cell-based; settings: 27° C. for 7 days
[9] = 50% lethal dose (LD50) in mice; format: in vivo
From the text: All of the antibiotics R106 show low toxicity. The results of 50% lethal dose (LD50) obtained when each of representative compounds of the present invention was given to mice intravenously, intraperitoneally and orally are shown in Table 7.

[10] = test system: Histoplasma capsulatum TIMM 0714; format: cell-based; settings: 27° C. for 7 days
[11] = test system: Fonsecaea pedrosoi TIMM 0482; assay: MIC by agar dilution method, casitone agar; format: cell-based; settings: 27° C. for 7 days
[12] = test system: Cladosporium carrionii TIMM 0337; assay: MIC by agar dilution method, casitone agar; format: cell-based; settings: 27° C. for 7 days
[13] = test system: Aspergillus niger TIMM 0113; assay: MIC by agar dilution method, casitone agar; format: cell-based; settings: 27° C. for 7 days
[14] = Physicochemical properties of compound 1
From the text: Physicochemical properties of compound 1 are as follows.

[15] = test system: Trichosporon cutanum TIMM 1318; assay: MIC by agar dilution method, casitone agar; format: cell-based; settings: 27° C. for 7 days
[16] = test system: Blastomyces dermatitidis TIMM 1690; assay: MIC by agar dilution method, casitone agar; format: cell-based; settings: 27° C. for 7 days
[17] = test system: Microsporum canis TIMM 0760; assay: MIC by agar dilution method, casitone agar; format: cell-based; settings: 27° C. for 7 days
[18] = test system: Phialophora verrucosa TIMM 0903; assay: MIC by agar dilution method, casitone agar; format: cell-based; settings: 27° C. for 7 days
[19] = test system: Cladosporium bantianum TIMM 0343; assay: MIC by agar dilution method, casitone agar; format: cell-based; settings: 27° C. for 7 days
[20] = test system: Candida albicans TIMM 1768; assay: Systemic candidiasis model of mice; format: in vivo, ICR strain mice; settings: for Mean Survival Day: 3 hours after infection, then once a day for 4 days, 30 days; for Number of Animal Survived/Number of Animal Tested: 30 days after infection; for T/C: mean survival day treated vs control
Procedure: Candida albicans TIMM 1768 was cultured in Sabouraud-dextrose broth at 37° C. overnight, and the cells were collected and suspended in physiological saline. A cell suspension containing 1×10^6 cells was intravenously injected to ICR strain mice (5 week age, female). After 3 hours, a solution of an antibiotic R106 in TWEEN 80-ethanolphysiological saline (1:9:90, v/v) was subcutaneously, intravenously or orally given to the mice in various concentrations, and then once a day for 4 days the R106 drug solution was given. Mortality was assessed for 30 days after infection to determine the therapeutic effect.
T/C is a value which expresses the mean survival day of the treated group
to the mean survival day of the not treated control group by %.

[21] = test system: Sporothrix schenckii TIMM 0959; assay: MIC by agar dilution method, casitone agar; format: cell-based; settings: 27° C. for 7 days
[22] = test system: Blastomyces dermatitidis TIMM 0126; assay: MIC by agar dilution method, casitone agar; format: cell-based; settings: 27° C. for 7 days
[23] = test system: Paracoccidioides brasiliensis TIMM 0878; assay: MIC by agar dilution method, casitone agar; format: cell-based; settings: 27° C. for 7 days
Procedure: (§1) The antibiotics R106 of the present invention are active against various fungi including pathogenic fungi. The minimum inhibitory concentration (MIC) of each antibiotic against various fungi was determined by the agar dilution method using casitone agar medium (2.0% glucose, 0.9% bacto-casitone, 1.0% yeast extract, 0.1% KH2 PO4, 0.1% Na2 HPO4, 1.0% sodium citrate, 2.0% agar: concentrations are all by w/v).
(§2) After culturing at 27° C. for 7 days, each minimum inhibitory concentration was determined.

[24] = test system: Paracoccidioides brasiliensis TIMM 0880; assay: MIC by agar dilution method, casitone agar; format: cell-based; settings: 27° C. for 7 days
Procedure: as §1, §2

[25] = test system: Trichophyton rubrum TIMM 1216; assay: MIC by agar dilution method, casitone agar; format: cell-based; settings: 27° C. for 7 days
[26] = test system: Epidermophyton floccosum TIMM 0431; assay: MIC by agar dilution method, casitone agar; format: cell-based; settings: 27° C. for 7 days
[27] = test system: Aspergillus crustorum TIMM 1332; assay: MIC by agar dilution method, casitone agar; format: cell-based; settings: 27° C. for 7 days

Compound: CCC(C)C1NC(=O)C2CCCN2C(=O)C(Cc2ccccc2)N(C)C(=O)C(Cc2ccccc2)NC(=O)C(C(C)C)N(C)C(=O)C(C(C)CC)OC(=O)C(C(C)(C)O)N(C)C(=O)C(CC(C)C)NC(=O)C(C(C)C)N(C)C1=O (stereo not drawn) [Compound 1] (cyclo([ξNMeVal(3-OH)][X1][NMeV]F[NMeF]PI[NMeV]L); configuration not given here)
- Minimum Inhibitory Concentration [1]: > 80 µg/mL
- Minimum Inhibitory Concentration [2]: 0.63 µg/mL
- Minimum Inhibitory Concentration [3]: 0.16 µg/mL
- Minimum Inhibitory Concentration [4]: > 80 µg/mL
- Minimum Inhibitory Concentration [5]: > 80 µg/mL
- Minimum Inhibitory Concentration [6]: 5 µg/mL
- Minimum Inhibitory Concentration [7]: 0.16 µg/mL
- Minimum Inhibitory Concentration [8]: 1.25 µg/mL
- LD50 ([9]; i.p.): > 400 mg/kg
- LD50 ([9]; i.v.): > 200 mg/kg
- LD50 ([9]; p.o.): > 1000 mg/kg
- Minimum Inhibitory Concentration [10]: 0.08 µg/mL
- Minimum Inhibitory Concentration [11]: 0.31 µg/mL
- Minimum Inhibitory Concentration [12]: 1.25 µg/mL
- Minimum Inhibitory Concentration [13]: > 80 µg/mL
- Acidic, neutral or basic [14]: neutral substance
- Solubility in solvent ([14]; organic solvents): soluble in chloroform, methanol, ethanol, N,N-dimethylformamide and dimethylsulfoxide
- Solubility in solvent ([14]; water): sparingly soluble in water
- Minimum Inhibitory Concentration [15]: > 80 µg/mL
- Minimum Inhibitory Concentration [16]: ≤ 0.04 µg/mL
- Minimum Inhibitory Concentration [17]: > 80 µg/mL
- Minimum Inhibitory Concentration [18]: > 80 µg/mL
- Minimum Inhibitory Concentration [19]: 0.63 µg/mL
- Mean Survival Day ([20]; i.v. 0.875 mg/kg): 14.6 ± 1.9 days
- Number of Animal Survived/Number of Animal Tested ([20]; i.v. 0.875 mg/kg): 0/5
- T/C ([20]; i.v. 0.875 mg/kg): 119%
- Mean Survival Day ([20]; i.v. 1.75 mg/kg): 18.2 ± 5.0 days
- Number of Animal Survived/Number of Animal Tested ([20]; i.v. 1.75 mg/kg): 0/5
- T/C ([20]; i.v. 1.75 mg/kg): 149%
- Mean Survival Day ([20]; i.v. 3.5 mg/kg): 19.2 ± 6.3 days
- Number of Animal Survived/Number of Animal Tested ([20]; i.v. 3.5 mg/kg): 0/5
- T/C ([20]; i.v. 3.5 mg/kg): 157%
- Mean Survival Day ([20]; i.v. 7 mg/kg): 29.0 ± 2.2 days
- Number of Animal Survived/Number of Animal Tested ([20]; i.v. 7 mg/kg): 4/5
- T/C ([20]; i.v. 7 mg/kg): 237%
- Mean Survival Day ([20]; i.v. 14 mg/kg): 26.6 ± 5.0 days
- Number of Animal Survived/Number of Animal Tested ([20]; i.v. 14 mg/kg): 3/5
- T/C ([20]; i.v. 14 mg/kg): 217%
- Mean Survival Day ([20]; p.o. 7 mg/kg): 14.8 ± 4.8 days
- Number of Animal Survived/Number of Animal Tested ([20]; p.o. 7 mg/kg): 0/5
- T/C ([20]; p.o. 7 mg/kg): 121%
- Mean Survival Day ([20]; p.o. 14 mg/kg): 23.2 ± 6.2 days
- Number of Animal Survived/Number of Animal Tested ([20]; p.o. 14 mg/kg): 0/5
- T/C ([20]; p.o. 14 mg/kg): 189%
- Mean Survival Day ([20]; p.o. 28 mg/kg): 30.0 ± 0 days
- Number of Animal Survived/Number of Animal Tested ([20]; p.o. 28 mg/kg): 5/5
- T/C ([20]; p.o. 28 mg/kg): 245%
- Mean Survival Day ([20]; s.c. 1.75 mg/kg): 14.2 ± 2.9 days
- Number of Animal Survived/Number of Animal Tested ([20]; s.c. 1.75 mg/kg): 0/5
- T/C ([20]; s.c. 1.75 mg/kg): 116%
- Mean Survival Day ([20]; s.c. 3.5 mg/kg): 18.8 ± 3.5 days
- Number of Animal Survived/Number of Animal Tested ([20]; s.c. 3.5 mg/kg): 0/5
- T/C ([20]; s.c. 3.5 mg/kg): 153%
- Mean Survival Day ([20]; s.c. 7 mg/kg): 22.4 ± 7.0 days
- Number of Animal Survived/Number of Animal Tested ([20]; s.c. 7 mg/kg): 2/5
- T/C ([20]; s.c. 7 mg/kg): 183%
- Mean Survival Day ([20]; s.c. 14 mg/kg): 27.2 ± 6.3 days
- Number of Animal Survived/Number of Animal Tested ([20]; s.c. 14 mg/kg): 4/5
- T/C ([20]; s.c. 14 mg/kg): 222%
- Minimum Inhibitory Concentration [21]: > 80 µg/mL
- Minimum Inhibitory Concentration [22]: 0.31 µg/mL
- Minimum Inhibitory Concentration [23]: 80 µg/mL
- Minimum Inhibitory Concentration [24]: 0.31 µg/mL
- Minimum Inhibitory Concentration [25]: > 80 µg/mL
- Minimum Inhibitory Concentration [26]: 2.5 µg/mL
- Minimum Inhibitory Concentration [27]: > 80 µg/mL
